From ChEMBL document CHEMBL2417377, “Hit-to-lead optimization and kinase selectivity of imidazo[1,2-a]quinoxalin-4-amine derived JNK1 inhibitors” (Bioorg Med Chem Lett, 2013)

Columns and labels:
[1] = molecular target: Rho-associated protein kinase 2 (Homo sapiens) (UniProt O75116); experiment: Inhibition of ROCK2 in human PC3 cell lysates at 10 uM using desthiobiotin-tagged ATP probe AX9989 followed by trypsinization by LC/MS analysis; conditions: PC-3
[2] = molecular target: T1, Serine/threonine-protein kinase Nek9 (Homo sapiens) (UniProt Q8TD19); experiment: Inhibition of NEK9 in human PC3 cell lysates at 10 uM using desthiobiotin-tagged ATP probe AX9989 followed by trypsinization by LC/MS analysis; conditions: PC-3
T1 sequence (whole entry): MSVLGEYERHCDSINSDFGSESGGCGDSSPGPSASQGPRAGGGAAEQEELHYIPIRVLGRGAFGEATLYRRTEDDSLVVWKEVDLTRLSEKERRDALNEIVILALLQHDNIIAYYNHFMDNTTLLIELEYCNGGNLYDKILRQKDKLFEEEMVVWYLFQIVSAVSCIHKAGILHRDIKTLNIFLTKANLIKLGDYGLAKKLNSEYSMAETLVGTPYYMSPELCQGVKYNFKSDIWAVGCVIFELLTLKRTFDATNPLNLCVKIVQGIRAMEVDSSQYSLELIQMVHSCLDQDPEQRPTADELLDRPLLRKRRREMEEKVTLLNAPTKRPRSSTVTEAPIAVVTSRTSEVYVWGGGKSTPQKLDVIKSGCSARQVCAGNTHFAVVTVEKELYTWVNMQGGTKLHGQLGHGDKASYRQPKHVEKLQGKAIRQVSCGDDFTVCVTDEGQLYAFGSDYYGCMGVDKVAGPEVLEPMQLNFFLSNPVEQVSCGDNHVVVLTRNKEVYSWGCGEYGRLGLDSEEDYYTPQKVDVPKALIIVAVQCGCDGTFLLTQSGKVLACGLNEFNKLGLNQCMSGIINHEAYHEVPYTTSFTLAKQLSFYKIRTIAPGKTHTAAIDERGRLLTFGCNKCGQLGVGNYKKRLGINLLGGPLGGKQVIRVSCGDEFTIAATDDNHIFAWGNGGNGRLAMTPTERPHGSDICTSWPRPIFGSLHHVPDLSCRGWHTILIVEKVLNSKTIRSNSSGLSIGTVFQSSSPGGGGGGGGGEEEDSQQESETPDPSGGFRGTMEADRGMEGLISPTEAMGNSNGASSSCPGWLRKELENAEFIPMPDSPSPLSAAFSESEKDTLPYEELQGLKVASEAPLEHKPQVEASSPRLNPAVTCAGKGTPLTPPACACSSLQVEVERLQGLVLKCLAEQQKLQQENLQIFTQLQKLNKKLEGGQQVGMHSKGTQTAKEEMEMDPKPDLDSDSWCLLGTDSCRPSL

[3] = molecular target: Serine/threonine-protein kinase MARK2 (Homo sapiens) (UniProt Q7KZI7); experiment: Inhibition of MARK2 in human PC3 cell lysates at 10 uM using desthiobiotin-tagged ATP probe AX9989 followed by trypsinization by LC/MS analysis; conditions: PC-3
Chain of Serine/threonine-protein kinase MARK2 (Homo sapiens) (Q7KZI7 whole entry): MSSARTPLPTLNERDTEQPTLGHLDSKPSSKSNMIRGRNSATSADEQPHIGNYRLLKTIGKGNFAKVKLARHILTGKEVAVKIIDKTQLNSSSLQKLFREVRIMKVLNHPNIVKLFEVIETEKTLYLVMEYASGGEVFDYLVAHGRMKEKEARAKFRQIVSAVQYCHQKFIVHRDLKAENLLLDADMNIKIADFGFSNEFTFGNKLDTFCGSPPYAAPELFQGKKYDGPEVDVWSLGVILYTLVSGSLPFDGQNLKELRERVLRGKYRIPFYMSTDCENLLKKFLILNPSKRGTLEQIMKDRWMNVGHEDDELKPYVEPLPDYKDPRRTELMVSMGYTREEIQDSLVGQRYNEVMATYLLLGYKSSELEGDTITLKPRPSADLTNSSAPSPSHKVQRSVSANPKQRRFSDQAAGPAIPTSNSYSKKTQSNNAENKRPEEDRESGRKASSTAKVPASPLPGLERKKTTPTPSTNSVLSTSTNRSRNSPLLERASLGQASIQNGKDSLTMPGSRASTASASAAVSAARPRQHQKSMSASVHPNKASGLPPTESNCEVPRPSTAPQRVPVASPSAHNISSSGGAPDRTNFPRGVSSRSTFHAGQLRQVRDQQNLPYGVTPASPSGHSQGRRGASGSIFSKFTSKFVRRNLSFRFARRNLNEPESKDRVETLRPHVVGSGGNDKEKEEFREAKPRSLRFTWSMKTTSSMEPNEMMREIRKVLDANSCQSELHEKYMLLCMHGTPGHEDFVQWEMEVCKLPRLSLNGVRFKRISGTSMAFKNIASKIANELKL

[4] = molecular target: T2, Serine/threonine-protein kinase Nek8 (Homo sapiens) (UniProt Q86SG6); experiment: Inhibition of NEK8 in human PC3 cell lysates at 10 uM using desthiobiotin-tagged ATP probe AX9989 followed by trypsinization by LC/MS analysis; conditions: PC-3
T2 sequence (whole entry): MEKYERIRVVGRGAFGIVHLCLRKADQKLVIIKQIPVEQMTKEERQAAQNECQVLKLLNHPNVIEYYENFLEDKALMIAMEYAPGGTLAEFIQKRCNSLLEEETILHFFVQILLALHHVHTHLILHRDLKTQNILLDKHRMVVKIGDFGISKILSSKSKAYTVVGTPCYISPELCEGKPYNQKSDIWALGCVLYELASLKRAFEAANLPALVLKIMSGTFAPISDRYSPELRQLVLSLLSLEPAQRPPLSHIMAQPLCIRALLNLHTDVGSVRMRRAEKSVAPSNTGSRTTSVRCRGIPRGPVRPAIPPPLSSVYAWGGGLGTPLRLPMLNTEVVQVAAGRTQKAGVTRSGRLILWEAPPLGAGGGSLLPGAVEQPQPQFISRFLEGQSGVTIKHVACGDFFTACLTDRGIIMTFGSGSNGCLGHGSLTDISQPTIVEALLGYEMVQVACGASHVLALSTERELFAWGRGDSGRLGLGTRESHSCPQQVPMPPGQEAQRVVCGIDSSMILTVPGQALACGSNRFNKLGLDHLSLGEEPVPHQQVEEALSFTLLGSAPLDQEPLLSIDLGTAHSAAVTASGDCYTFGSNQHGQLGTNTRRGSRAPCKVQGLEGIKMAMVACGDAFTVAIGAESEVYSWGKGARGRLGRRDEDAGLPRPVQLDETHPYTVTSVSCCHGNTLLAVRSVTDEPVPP

PC-3 [5] = experiment: Inhibition of ZC1/HGK/ZC2/TNIK/ZC3/MINK in human PC3 cell lysates at 10 uM using desthiobiotin-tagged ATP probe AX9989 followed by trypsinization by LC/MS analysis; assay type: cell-free
[6] = molecular target: T3, Serine/threonine-protein kinase 4 (Homo sapiens) (UniProt Q13043); experiment: Inhibition of MST1 in human PC3 cell lysates at 10 uM using desthiobiotin-tagged ATP probe AX9989 followed by trypsinization by LC/MS analysis; conditions: PC-3
T3 sequence (whole entry): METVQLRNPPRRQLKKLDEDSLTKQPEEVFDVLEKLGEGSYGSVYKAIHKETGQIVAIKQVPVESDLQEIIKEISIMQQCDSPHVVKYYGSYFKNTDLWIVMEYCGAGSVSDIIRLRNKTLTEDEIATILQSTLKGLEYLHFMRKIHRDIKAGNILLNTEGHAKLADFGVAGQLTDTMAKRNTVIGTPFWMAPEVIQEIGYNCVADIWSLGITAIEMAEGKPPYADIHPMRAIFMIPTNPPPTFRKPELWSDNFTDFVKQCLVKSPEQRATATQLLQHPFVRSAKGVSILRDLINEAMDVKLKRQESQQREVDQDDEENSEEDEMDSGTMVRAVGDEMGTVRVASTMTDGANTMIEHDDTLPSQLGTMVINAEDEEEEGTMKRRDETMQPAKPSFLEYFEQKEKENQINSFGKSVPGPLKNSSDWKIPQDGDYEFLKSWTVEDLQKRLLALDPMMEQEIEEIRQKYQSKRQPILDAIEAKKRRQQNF

PC-3 [7] = experiment: Inhibition of KHS1 in human PC3 cell lysates at 10 uM using desthiobiotin-tagged ATP probe AX9989 followed by trypsinization by LC/MS analysis; assay type: cell-free

Chain of Rho-associated protein kinase 2 (Homo sapiens) (O75116 whole entry, looked up): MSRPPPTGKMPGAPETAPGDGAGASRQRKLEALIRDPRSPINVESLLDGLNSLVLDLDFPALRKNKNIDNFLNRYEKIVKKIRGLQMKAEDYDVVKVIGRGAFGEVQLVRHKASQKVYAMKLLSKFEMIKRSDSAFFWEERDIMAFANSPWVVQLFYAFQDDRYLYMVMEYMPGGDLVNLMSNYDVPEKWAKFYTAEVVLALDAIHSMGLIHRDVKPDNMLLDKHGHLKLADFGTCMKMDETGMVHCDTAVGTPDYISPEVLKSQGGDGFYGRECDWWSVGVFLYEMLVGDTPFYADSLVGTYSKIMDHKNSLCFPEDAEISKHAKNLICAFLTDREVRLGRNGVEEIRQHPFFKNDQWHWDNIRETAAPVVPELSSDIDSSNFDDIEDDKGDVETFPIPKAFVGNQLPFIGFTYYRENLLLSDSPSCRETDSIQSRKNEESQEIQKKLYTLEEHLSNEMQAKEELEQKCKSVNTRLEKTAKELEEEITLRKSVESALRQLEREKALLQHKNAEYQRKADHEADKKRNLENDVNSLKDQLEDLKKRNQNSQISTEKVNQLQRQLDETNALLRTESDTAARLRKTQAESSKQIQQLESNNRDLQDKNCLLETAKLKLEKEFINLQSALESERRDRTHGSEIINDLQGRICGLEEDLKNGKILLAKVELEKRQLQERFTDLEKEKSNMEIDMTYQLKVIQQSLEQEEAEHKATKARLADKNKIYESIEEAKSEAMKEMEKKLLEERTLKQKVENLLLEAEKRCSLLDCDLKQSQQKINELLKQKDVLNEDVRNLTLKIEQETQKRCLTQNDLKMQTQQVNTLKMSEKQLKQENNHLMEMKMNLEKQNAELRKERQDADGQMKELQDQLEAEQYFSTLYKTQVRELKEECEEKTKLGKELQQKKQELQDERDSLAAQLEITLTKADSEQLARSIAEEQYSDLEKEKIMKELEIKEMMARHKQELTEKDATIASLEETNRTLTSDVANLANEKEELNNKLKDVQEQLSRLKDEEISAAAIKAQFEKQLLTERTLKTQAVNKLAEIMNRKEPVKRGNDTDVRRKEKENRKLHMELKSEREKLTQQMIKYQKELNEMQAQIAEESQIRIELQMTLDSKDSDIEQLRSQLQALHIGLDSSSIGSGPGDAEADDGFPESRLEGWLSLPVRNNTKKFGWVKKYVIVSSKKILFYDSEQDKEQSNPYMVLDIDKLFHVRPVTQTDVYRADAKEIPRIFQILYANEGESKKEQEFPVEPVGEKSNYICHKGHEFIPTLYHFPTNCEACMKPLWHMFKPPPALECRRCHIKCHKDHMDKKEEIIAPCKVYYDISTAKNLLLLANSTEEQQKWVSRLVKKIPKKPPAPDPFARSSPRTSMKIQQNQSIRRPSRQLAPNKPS

Row | SMILES | inhibition [1] [%] | inhibition [2] [%] | inhibition [3] [%] | inhibition [4] [%] | inhibition (PC-3 [5]) [%] | inhibition [6] [%] | inhibition (PC-3 [7]) [%]
1 | O=C(NC1(c2ccccc2)CC1)c1ccc2nc(N[C@H]3CC[C@H](O)CC3)c3nccn3c2c1 | < 35 | < 35 | < 35 | < 35 | < 35 | < 35 | < 35
2 | C[C@@H](NC(=O)c1ccc2nc(N[C@H]3CC[C@H](O)CC3)c3nccn3c2c1)c1ccccc1 | < 35 | < 35 | < 35 | < 35 | < 35 | < 35 | < 35
3 | O=C(O)c1ccc2nc(N[C@H]3CC[C@H](O)CC3)c3nccn3c2c1 | < 35 | < 35 | < 35 | < 35 | < 35 | < 35 | < 35
4 | O=C(NC1(c2ccc(F)cc2)CC1)c1ccc2nc(N[C@H]3CC[C@H](O)CC3)c3nccn3c2c1 | < 35 | < 35 | < 35 | < 35 | < 35 | < 35 | < 35
5 | O=C(NC1(Cc2ccc(F)cc2)CC1)c1ccc2nc(N[C@H]3CC[C@H](O)CC3)c3nccn3c2c1 | < 35 | < 35 | < 35 | < 35 | < 35 | < 35 | < 35
6 | CC[C@@H](NC(=O)c1ccc2nc(N[C@H]3CC[C@H](O)CC3)c3nccn3c2c1)c1ccccc1 | < 35 | < 35 | < 35 | < 35 | < 35 | < 35 | < 35
7 | CCC[C@@H](NC(=O)c1ccc2nc(N[C@H]3CC[C@H](O)CC3)c3nccn3c2c1)c1ccccc1 | < 35 | < 35 | < 35 | < 35 | < 35 | < 35 | < 35
8 | NC(=O)c1ccc2nc(N[C@H]3CC[C@H](O)CC3)c3nccn3c2c1 | < 35 | < 35 | < 35 | < 35 | 37 | < 35 | < 35
9 | O=C(N[C@H](CO)c1ccccc1)c1ccc2nc(N[C@H]3CC[C@H](O)CC3)c3nccn3c2c1 | < 35 | < 35 | < 35 | < 35 | < 35 | < 35 | < 35
10 | CC(C)(NC(=O)c1ccc2nc(N[C@H]3CC[C@H](O)CC3)c3nccn3c2c1)c1ccccc1 | < 35 | < 35 | < 35 | < 35 | < 35 | < 35 | < 35
11 | C[C@H](NC(=O)c1ccc2nc(N[C@H]3CC[C@H](O)CC3)c3nccn3c2c1)c1ccccc1 | < 35 | < 35 | < 35 | < 35 | < 35 | < 35 | < 35
12 | O=C(NC1(c2ccccc2)CCC1)c1ccc2nc(N[C@H]3CC[C@H](O)CC3)c3nccn3c2c1 | < 35 | < 35 | < 35 | < 35 | < 35 | < 35 | < 35
